Source: patent US11464749B2, “Bismuth-thiol compositions and methods of use” (Microbion Corporation, priority 2018, dated 2022)
Marks after values point to notes of the source that are not given here.

Experiments:
Test in all cases: Broth microdilution antifungal susceptibility (Example 13)
Format in all cases: cell-based
A. niger = A. niger ATCC 29508; 48 hr only, insufficient growth for 24 hr read
Candida glabrata = tested on: Candida glabrata
A. terreus = A. terreus MMX 8229; 48 hr only, insufficient growth for 24 hr read
Candida auris = tested on: Candida auris
A. flavus = tested on: A. flavus
Candida krusei = tested on: Candida krusei
A. fumigatus = tested on: A. fumigatus
Candida albicans = tested on: Candida albicans

Structure (SMILES): CC[C@H](C)C[C@H](C)CCCCCCCCC(=O)N[C@H]1C[C@@H](O)[C@@H](NCCN)NC(=O)[C@@H]2[C@@H](O)CCN2C(=O)[C@H]([C@H](O)CCN)NC(=O)[C@H]([C@H](O)[C@@H](O)c2ccc(O)cc2)NC(=O)[C@@H]2C[C@@H](O)CN2C(=O)[C@H]([C@@H](C)O)NC1=O [CASP]
- MEC (minimum effective concentration) (A. niger): 0.06^b μg/mL
- MIC2 (50% inhibition) (Candida glabrata; isolate ATCC 90030 (Susceptible)): 0.12 µg/mL
- MIC2 (50% inhibition) (Candida glabrata; isolate ATCC MYA-2950 (Susceptible)): 0.12 µg/mL
- MIC2 (50% inhibition) (Candida glabrata; isolate MMX 7087 (Susceptible)): 0.12 µg/mL
- MIC2 (50% inhibition) (Candida glabrata; isolate MMX 7093 (FLU-R)): 0.12 µg/mL
- MIC2 (50% inhibition) (Candida glabrata; isolate MMX 7101 (FLU-R)): 0.12 µg/mL
- MIC2 (50% inhibition) (Candida glabrata; isolate MMX 7103 (CASP-R, MICA-R)): >8 µg/mL
- MIC2 (50% inhibition) (Candida glabrata; isolate MMX 7111 (Susceptible)): 0.12 µg/mL
- MIC2 (50% inhibition) (Candida glabrata; isolate MMX 7285 (CASP-R, MICA-R)): 0.5 µg/mL
- MIC2 (50% inhibition) (Candida glabrata; isolate MMX 7307 (CASP-R, MICA-R, FLU-R)): >8 µg/mL
- MIC2 (50% inhibition) (Candida glabrata; isolate MMX 7549 (Susceptible)): 0.06 µg/mL
- MEC (minimum effective concentration) (A. terreus): 0.12^b μg/mL
- MIC2 (50% inhibition) (Candida auris; isolate MMX 9862 (Susceptible)): 0.12 µg/mL
- MIC2 (50% inhibition) (Candida auris; isolate MMX 9863 (FLU-R, VORI-R)): 0.12^b μg/mL
- MIC2 (50% inhibition) (Candida auris; isolate MMX 9864 (FLU-R, VORI-R)): 0.25^b μg/mL
- MIC2 (50% inhibition) (Candida auris; isolate MMX 9865 (FLU-R, VORI-R)): 0.25^b μg/mL
- MIC2 (50% inhibition) (Candida auris; isolate MMX 9866 (FLU-R, VORI-R)): 0.12^b μg/mL
- MIC2 (50% inhibition) (Candida auris; isolate MMX 9867 (FLU-R, VORI-R)): 0.12 µg/mL
- MIC2 (50% inhibition) (Candida auris; isolate MMX 9868 (FLU-R, VORI-R)): 0.25 µg/mL
- MIC2 (50% inhibition) (Candida auris; isolate MMX 9869 (FLU-R, VORI-R)): 0.25 µg/mL
- MIC2 (50% inhibition) (Candida auris; isolate MMX 9870 (FLU-R, VORI-R)): 0.25 µg/mL
- MIC2 (50% inhibition) (Candida auris; isolate MMX 9871 (Susceptible)): 0.25^b μg/mL
- MEC (minimum effective concentration) (A. flavus; A. flavus ATCC 22546): 0.06 µg/mL
- MEC (minimum effective concentration) (A. flavus; A. flavus ATCC 204304): 0.06 µg/mL
- MEC (minimum effective concentration) (A. flavus; A. flavus MMX 7935): 0.03 µg/mL
- MIC2 (50% inhibition) (Candida krusei; isolate ATCC 6258 (MICA-I)): 0.25 µg/mL
- MIC2 (50% inhibition) (Candida krusei; isolate ATCC 14243 (Susceptible)): 0.012 µg/mL
- MIC2 (50% inhibition) (Candida krusei; isolate ATCC 96685 (Susceptible)): 0.12 µg/mL
- MIC2 (50% inhibition) (Candida krusei; isolate MMX 7125 (Susceptible)): 0.25 µg/mL
- MIC2 (50% inhibition) (Candida krusei; isolate MMX 7128 (Susceptible)): 0.25 µg/mL
- MIC2 (50% inhibition) (Candida krusei; isolate MMX 7141 (Susceptible)): 0.25 µg/mL
- MIC2 (50% inhibition) (Candida krusei; isolate MMX 7153 (MICA-R)): 0.25 µg/mL
- MIC2 (50% inhibition) (Candida krusei; isolate MMX 7155 (Susceptible)): 0.25 µg/mL
- MIC2 (50% inhibition) (Candida krusei; isolate MMX 7563 (Susceptible)): 0.12 µg/mL
- MIC2 (50% inhibition) (Candida krusei; isolate MMX 9878 (MICA-I, VORI-I)): 0.25 µg/mL
- MEC (minimum effective concentration) (A. fumigatus; A. fumigatus ATCC 204305): 0.25 µg/mL
- MEC (minimum effective concentration) (A. fumigatus; A. fumigatus ATCC MYA-3626): 0.06 µg/mL
- MEC (minimum effective concentration) (A. fumigatus; A. fumigatus MMX 5934): 0.12 µg/mL
- MEC (minimum effective concentration) (A. fumigatus; A. fumigatus MMX 5938, 48 hr only, insufficient growth for 24 hr read): 0.12^b μg/mL
- MEC (minimum effective concentration) (A. fumigatus; A. fumigatus MMX 5939): 0.12 µg/mL
- MIC2 (50% inhibition) (Candida albicans; isolate ATCC 90028 (Susceptible), 24 hr): 0.06 µg/mL
- MIC2 (50% inhibition) (Candida albicans; isolate ATCC 204276 (MICA-R), 24 hr): 0.25 µg/mL
- MIC2 (50% inhibition) (Candida albicans; isolate ATCC MYA-2732 (FLU-R, VORI-I), 24 hr): 0.06 µg/mL
- MIC2 (50% inhibition) (Candida albicans; isolate MMX 7053 (Susceptible), 24 hr): 0.06 µg/mL
- MIC2 (50% inhibition) (Candida albicans; isolate MMX 7067 (FLU-R, VORI-R), 24 hr): 0.06 µg/mL
- MIC2 (50% inhibition) (Candida albicans; isolate MMX 7403 (Susceptible), 24 hr): 0.06 µg/mL
- MIC2 (50% inhibition) (Candida albicans; isolate MMX 7424 (CASP-R, MICA-R), 24 hr): 8 µg/mL
- MIC2 (50% inhibition) (Candida albicans; isolate MMX 7430 (Susceptible), 24 hr): 0.06 µg/mL
- MIC2 (50% inhibition) (Candida albicans; isolate MMX 7437 (FLU-I), 24 hr): 0.06 µg/mL
- MIC2 (50% inhibition) (Candida albicans; isolate MMX 7445 (FLU-R, VORI-R), result after 48 hr incubation (insufficient growth at 24 hr)): 0.06^a μg/mL
